Converted amounts (≈) assume the structure as drawn. Like-named read-outs stand apart in the source and are kept apart here.
Experiments:
Experiment in all cases: Antibacterial activity, agar dilution streak MIC
Type in all cases: cell-based
[1] = system: Streptococcus pyogenes IID692; conditions: Streptococcus pyogenes IID692, Gram +; read-out: Minimum inhibitory concentration
Description: (§1) The antibacterial activities of the compounds of this invention were assayed by the standard agar dilution streak method against Gram-positive and Gram-negative bacteria [Chemothrapy, 22, 1126 (1974)].

[2] = system: Proteus vulgaris IF03167; conditions: Proteus vulgaris IF03167, Gram -; read-out: Minimum inhibitory concentration
Description: as §1

[3] = system: Salmonella enteritidis IID604; conditions: Salmonella enterica, read-out: Minimum inhibitory concentration
Description: as §1

[4] = system: Bacillus subtilis PCI219; conditions: Bacillus subtilis PCI219, Gram +; read-out: Minimum inhibitory concentration
Description: as §1

[5] = system: Diplococcus pneumoniae IID552; conditions: Streptococcus pneumoniae; Diplococcus pneumoniae IID552, Gram +; read-out: Minimum inhibitory concentration
Description: as §1

[6] = system: S. aureus ATCC14775; conditions: Staphylococcus aureus; S. aureus ATCC14775, Gram +; read-out: Minimum inhibitory concentration
Description: as §1

[7] = system: Pseudo. aeruginosa IF012689; conditions: Pseudomonas aeruginosa; Pseudo. aeruginosa IF012689, Gram -; read-out: Minimum inhibitory concentration
Description: as §1

[8] = system: Klebsiella pneumoniae IF03512; conditions: Klebsiella pneumoniae IF03512, Gram -; read-out: Minimum inhibitory concentration
Description: as §1

[9] = system: Pseudomonas aeruginosa VI; conditions: Gram -, read-out: Minimum inhibitory concentration
Description: as §1

[10] = system: Escherichia coli NIHJ JC-2; conditions: NIHJJC2, read-out: Minimum inhibitory concentration
Description: as §1

[11] = system: Staphyloccocus aureus 209P; conditions: read-out: Minimum inhibitory concentration
Description: as §1

[12] = system: Shigella sonnei IID969; conditions: Shigella sonnei IID969, Gram -; read-out: Minimum inhibitory concentration
Description: The antibacterial activities of the compounds of this invention were assayed by the standard agar dilution streak method against Gram-positive and Gram-negative bacteria [Chemothrapy, 22, 1126 (1974)]. The result was shown in Table 1 together with a known agent, nalidixic acid.

Row | SMILES | MIC [1] [µg/mL] | MIC [5] [µg/mL] | MIC [7] [µg/mL] | MIC [8] [µg/mL] | MIC [12] [µg/mL] | further results
1 | CCn1cc(C(=O)O)c(=O)c2cc(F)c(N3CCNCC3)cc21 [Example 1, 1-ethyl-6-fluoro-7-(1-piperazinyl)-4-oxo-1,4-dihydroquinoline-3-carboxylicacid] | 1.56 (≈ 4.89 µM) | 3.13 (≈ 9.8 µM) | 1.56 (≈ 4.89 µM) | 0.05 (≈ 0.157 µM) | 0.1 (≈ 0.313 µM) | MIC [2]: 0.1 µg/mL (≈ 0.313 µM); MIC ([3]; Salmonella enteritidis IID604, Gram -): 0.2 µg/mL (≈ 0.626 µM); MIC [4]: 0.39 µg/mL (≈ 1.22 µM); MIC [6]: 3.13 µg/mL (≈ 9.8 µM); MIC [9]: 0.39 µg/mL (≈ 1.22 µM); MIC [10]: 0.1 µg/mL (≈ 0.313 µM); MIC ([11]; Staphyloccocus aureus 209P, Gram +): 0.78 µg/mL (≈ 2.44 µM)
2 | CCn1cc(C(=O)O)c(=O)c2cc(F)c(N3CCN(C)CC3)cc21 [Example 6, 1-ethyl-6-fluoro-7-(4-methyl-1-piperazinyl)-4-oxo-1,4-dihydroquinoline-3-carboxylic acid] | 6.25 (≈ 18.7 µM) | 3.13 (≈ 9.39 µM) | 3.13 (≈ 9.39 µM) | 0.05 (≈ 0.15 µM) | 0.1 (≈ 0.3 µM) | MIC [3]: 0.78 µg/mL (≈ 2.34 µM)
3 | C=Cn1cc(C(=O)O)c(=O)c2cc(F)c(N3CCNCC3)cc21 [Example 8, 1-vinyl-6-fluoro-7-(1-piperazinyl)-4-oxo-1,4-dihydroquinoline-3-carboxylicacid] | 12.5 (≈ 39.4 µM) | – | – | – | – | –
4 | C=Cn1cc(C(=O)O)c(=O)c2cc(F)c(N3CCN(C)CC3)cc21 [Example 9, 1-vinyl-6-fluoro-7-(4-methyl-1-piperazinyl)-4-oxo-1,4-dihydroquinoline-3-carboxylic acid] | 12.5 (≈ 37.7 µM) | – | – | – | – | –
5 | CCn1cc(C(=O)O)c(=O)c2ccc(C)nc21 [NA, Nalidixic acid, reference compound] | – | – | – | – | – | MIC [11]: 50 µg/mL (≈ 215 µM)

Reference: patent publication US4472579A, “Process for the preparation of quinoline carboxylic acid derivatives” (Kyorin Seiyaku Kabushiki Kaisha, priority 1980, dated 1984)
